Drawing on PubChem BioAssay AID1259407 (Chemical Carcinogenesis Research Information System (CCRIS), 2018), this text covers mutagenic call for ten compounds.

Structures are written as SMILES. Activity calls are given as the source filed them. The rule behind the calls is not given here.

The data set relates to CCRIS mutagenicity, Ames/micronucleus/aberration tests. Briefly: CCRIS mutagenicity studies.
[1] abbreviates: Test System: AMES SALMONELLA TYPHIMURIUM, Strain/Indicator: TA100, Metabolic Activation: NONE, Method: PREINCUBATION
[2] abbreviates: Test System: AMES SALMONELLA TYPHIMURIUM, Strain/Indicator: TA102, Metabolic Activation: NONE, Method: STANDARD PLATE.
[3] abbreviates: Test System: AMES SALMONELLA TYPHIMURIUM, Strain/Indicator: TA98, Metabolic Activation: RAT, LIVER, S-9, AROCLOR 1254, Method: STANDARD PLATE.
[4] abbreviates: Test System: AMES SALMONELLA TYPHIMURIUM, Strain/Indicator: TA98, Metabolic Activation: NONE, Method: STANDARD PLATE.
The mark [5] stands for this setting: Test System: AMES SALMONELLA TYPHIMURIUM, Strain/Indicator: TA100, Metabolic Activation: NONE, Method: STANDARD PLATE.
The mark [6] stands for this setting: Test System: AMES SALMONELLA TYPHIMURIUM, Strain/Indicator: TA1537, Metabolic Activation: NONE, Method: STANDARD PLATE.

As for `Cc1n[nH]c(=O)[nH]c1=O`, the mutagenic call by setting is: (Test System: AMES SALMONELLA TYPHIMURIUM, Strain/Indicator: TA98, Metabolic Activation: MAIZE SEEDLING, S-14, Method: PREINCUBATION) “inactive; negative”; (Test System: AMES SALMONELLA TYPHIMURIUM, Strain/Indicator: TA98, Metabolic Activation: MOUSE, LIVER, S-9, Method: PREINCUBATION) “inactive; negative”; (Test System: AMES SALMONELLA TYPHIMURIUM, Strain/Indicator: TA98, Metabolic Activation: NONE, Method: PREINCUBATION) “inactive; negative”; (Test System: AMES SALMONELLA TYPHIMURIUM, Strain/Indicator: TA100, Metabolic Activation: MAIZE SEEDLING, S-14, Method: PREINCUBATION) “inactive; negative”; (Test System: AMES SALMONELLA TYPHIMURIUM, Strain/Indicator: TA100, Metabolic Activation: MOUSE, LIVER, S-9, Method: PREINCUBATION) “inactive; negative”; under setting [1], “inactive; negative”. Further, the mutagenic call reads like this: (Test System: AMES SALMONELLA TYPHIMURIUM, Strain/Indicator: TA1535, Metabolic Activation: NONE, Method: PREINCUBATION) “inactive; negative”; (Test System: AMES SALMONELLA TYPHIMURIUM, Strain/Indicator: TA1537, Metabolic Activation: NONE, Method: PREINCUBATION) “inactive; negative”; (Test System: AMES SALMONELLA TYPHIMURIUM, Strain/Indicator: TA1538, Metabolic Activation: NONE, Method: PREINCUBATION) “inactive; negative”.

In the case of `CCn1cc(C(=O)O)c(=O)c2cc3c(cc21)OCO3`, the mutagenic call is “active; positive” under setting [2]; “active; positive” (Test System: AMES SALMONELLA TYPHIMURIUM, Strain/Indicator: TA2638, Metabolic Activation: NONE, Method: STANDARD PLATE); “active; positive” (Test System: E. COLI, Strain/Indicator: WP2 (PKM101), Metabolic Activation: NONE, Method: STANDARD PLATE); “active; positive” (Test System: E. COLI, Strain/Indicator: WP2 UVRA (PKM101), Metabolic Activation: NONE, Method: STANDARD PLATE).

`CCCCB(CCCC)CCCC`: the mutagenic call runs as follows: (Test System: AMES SALMONELLA TYPHIMURIUM, Strain/Indicator: TA98, Metabolic Activation: HAMSTER, LIVER, S-9, AROCLOR 1254, Method: STANDARD PLATE) “active; positive”; under setting [3], “active; positive”; (Test System: AMES SALMONELLA TYPHIMURIUM, Strain/Indicator: TA100, Metabolic Activation: HAMSTER, LIVER, S-9, AROCLOR 1254, Method: STANDARD PLATE) “active; positive”; (Test System: MOUSE LYMPHOMA, Strain/Indicator: L5178Y (TK+/TK-), Metabolic Activation: NONE, Method: SUSPENSION/PLATE) “inactive; negative. reevaluation of results: negative”; (Test System: MOUSE LYMPHOMA, Strain/Indicator: L5178Y (TK+/TK-), Metabolic Activation: RAT, LIVER, S-9, AROCLOR 1254, Method: SUSPENSION/PLATE) “inactive; negative. reevaluation of results: negative”.

Consider `Cc1cc2c(c3ccc4ccccc4c13)[C@@H]1O[C@@H]1[C@H](O)[C@H]2O`, for which, under setting [1], the mutagenic call is “active; positive”.

For `c1cc2c3c(cccc3c1)C1NC21` (stereo not given), the mutagenic call by setting is: under setting [4], “active; positive”; under setting [5], “active; positive”; under setting [6], “active; positive”.

Consider `O=C1c2c(O)ccc3c2[C@H](c2ccc(O)c4c2[C@H]3[C@H]2O[C@H]2C4=O)[C@H]2O[C@@H]12`, for which the mutagenic call reads like this: under setting [4], “active; positive”; under setting [3], “active; positive”; (Test System: AMES SALMONELLA TYPHIMURIUM, Strain/Indicator: TA98, Method: STANDARD PLATE) “active; positive”; under setting [5], “active; positive”; (Test System: AMES SALMONELLA TYPHIMURIUM, Strain/Indicator: TA100, Metabolic Activation: RAT, LIVER, S-9, AROCLOR 1254, Method: STANDARD PLATE) “active; positive”; under setting [6], “active; positive”. Besides, the mutagenic call (Test System: AMES SALMONELLA TYPHIMURIUM, Strain/Indicator: TA1537, Metabolic Activation: RAT, LIVER, S-9, AROCLOR 1254, Method: STANDARD PLATE) was “active; positive”.

For the compound `COc1ccc2c(OC)c3ccoc3nc2c1OC`, the mutagenic call is, setting by setting: (Test System: AMES SALMONELLA TYPHIMURIUM, Strain/Indicator: TA98, Metabolic Activation: RAT, LIVER, MICROSOMES, PHENOBARBITAL, Method: STANDARD PLATE) “active; positive”; (Test System: AMES SALMONELLA TYPHIMURIUM, Strain/Indicator: TA98, Metabolic Activation: RAT, LIVER, S-9, PHENOBARBITAL, Method: STANDARD PLATE) “active; positive”; (Test System: AMES SALMONELLA TYPHIMURIUM, Strain/Indicator: TA100, Metabolic Activation: RAT, LIVER, MICROSOMES, PHENOBARBITAL, Method: STANDARD PLATE) “active; positive”; (Test System: AMES SALMONELLA TYPHIMURIUM, Strain/Indicator: TA100, Metabolic Activation: RAT, LIVER, S-9, PHENOBARBITAL, Method: STANDARD PLATE) “active; positive”; (Test System: AMES SALMONELLA TYPHIMURIUM, Strain/Indicator: TA1535, Metabolic Activation: RAT, LIVER, MICROSOMES, PHENOBARBITAL, Method: STANDARD PLATE) “inactive; negative”; (Test System: AMES SALMONELLA TYPHIMURIUM, Strain/Indicator: TA1538, Metabolic Activation: RAT, LIVER, MICROSOMES, PHENOBARBITAL, Method: STANDARD PLATE) “inactive; negative”.

For the compound `COC1=CC(=O)c2c(ncc3c2[nH]c2ccncc23)C1=O`, the mutagenic call is “active; positive” (Test System: AMES SALMONELLA TYPHIMURIUM, Strain/Indicator: TA97A, Metabolic Activation: NONE, Method: STANDARD PLATE); “inactive; negative” (Test System: AMES SALMONELLA TYPHIMURIUM, Strain/Indicator: TA97A, Metabolic Activation: RAT LIVER S-9, AROCLOR 1254, Method: STANDARD PLATE); “active; positive” under setting [4]; “active; positive” (Test System: AMES SALMONELLA TYPHIMURIUM, Strain/Indicator: TA98, Metabolic Activation: RAT LIVER S-9, AROCLOR 1254, Method: STANDARD PLATE); “active; positive” under setting [5]; “active; positive” (Test System: AMES SALMONELLA TYPHIMURIUM, Strain/Indicator: TA100, Metabolic Activation: RAT LIVER S-9, AROCLOR 1254, Method: STANDARD PLATE). The mutagenic call is “active; positive” under setting [2] and “active; positive” (Test System: AMES SALMONELLA TYPHIMURIUM, Strain/Indicator: TA102, Metabolic Activation: RAT LIVER S-9, AROCLOR 1254, Method: STANDARD PLATE).

On to `CC#CC(OC(=O)NC1CCCCC1)(c1ccccc1)c1ccccc1`, for which the mutagenic call under setting [5] is “active; positive”.

Consider `c1ccc2c(c1)-c1cc3c(cc1C1NC21)-c1ccccc1C1NC31` (stereo not given), for which the mutagenic call under setting [5] was “active; positive”.
